Reference: US20040116397A1, “Agents and methods for the prevention of initial onset of cancers, the treatment of cancers, and the recurrence of existing cancers” (priority 2003, published 2004)
Entries after “also recorded” stand apart in the source; their conditions may differ.

Experiments:
[1] = test system: prostate cancer cell lines (LNCaP, DU145) and brain and/or nervous system cancer cell line (DAOY); test: Cell proliferation and induction of apoptosis, 2-ME versus 16-ES; assay type: cell-based
Description: Building on these findings, further experiments have helped to elucidate the structural bases for 2-ME's molecular efficacy. A number of experiments have been conducted using 2-ME and 16-epiestriol (hereinafter “16-ES”), an analogue of 2-ME that lacks the methoxy group at the second position. In a multitude of experiments, using prostate cancer cell lines (both androgen-dependent (LNCaP), and androgen-independent (DU145) cells), and a brain and/or nervous system cancer cell line (DAOY), the present inventors have studied the effects of 2-ME and 16-ES on cell proliferation and the induction of apoptosis, in a number of ways. […] Further, it also indicates efficacy of a series of compounds with various moieties at the second position in the treatment of cancer. […] Thus, the present inventors now propose a method of synthesizing a number of analogues of 2-ME that will exceed the efficacy of 2-ME in the prevention of cancer.

[2] = test system: DU145 cells; test: Cell cycle distribution by flow cytometric analysis (Krishan stain); assay type: cell-based; details: DU145, 3 μM, 16 hours
Experimental: Referring to FIG. 3, since 2-ME inhibited the growth of LNCaP and DU145 cells, the present inventors set out to examine whether 2-ME treatment altered the distribution of cells during cell cycle progression. Logarithmically growing DU145 cells were plated in 60 mm dishes as described above at a density of 10^5 cells per dish. After 24 hours of growth at 37° C. in an incubator with 5% CO2, half the dishes were treated with 3 μM of 2-ME and the other half was left untreated. Cells were observed every 24 hours for morphological changes following treatment with 2-ME. After 16 hours of incubation cells were harvested by trypsinization and the cell pellet was resuspended in 1 ml of Krishan stain and subjected to flow cytometric analysis at the Flow Cytometry facility of the University of Colorado Comprehensive Cancer Center, Denver, Colo. […] This could be due to alteration of expression and/or activities of cell cycle regulatory proteins in the G2/M phase.

[3] = test system: DMBA-TPA induced tumors; test: Regression of DMBA-TPA induced tumors in mice; assay type: in vivo, mouse; details: 2 mg topically twice a week for four weeks
Experimental: Referring to FIG. 12, after 4 weeks, animals were sacrificed and the dorsal skin was used for histology. […] In addition, topical application of 2 mg of 2-ME during tumor initiation-promotion stage inhibited hyperplasia by about 14%. […] In addition, the present inventors have treated mice that have developed the tumors using DMBA-TPA protocol with 2 mg of 2-ME topically twice a week for four weeks to see if tumors regress. During this four-week study, we have noticed that the number of tumors reduced from 10 to 8 in one animal (one such tumor is indicated by an arrow in the mouse II—see FIG. 13) and no change in the other animal.

[4] = test system: DU145 cells; test: Cell growth, CELLTITER96 AQUEOUS ONE tetrazolium assay; assay type: cell-based
Experimental: (§1) Referring to FIG. 1, actively growing LNCaP and DU145 cells were plated in 96-well plates at a density of 10^5 cells per well. After 24 hours in a 37° C. incubator with 5% CO2, the cells were treated with the indicated concentration of 2-ME. Control cells received only the vehicle (DMSO). Cell growth was monitored every 24 hours using the […]96 AQUEOUS ONE solution assay containing a tetrazolium compound (Promega Corporation, Madison, Wis.).
(§2) The assay is based on the principle that actively growing cells generate reducing equivalents such as NADH that is necessary for the cells to reduce the tetrazolium compound to formazan product that is detected by measuring the absorbance at […]. Increase in absorbance indicates cell viability.
(§3) The data reflected in FIG. 1 represents an average of five replicates and the experiment was conducted twice. […] It is known that there are differences of AR and p53 between these two cell types.

[5] = test system: endothelial cell; details: background, reference (3); cited from earlier work
[6] = test system: epidermal hyperplasia; test: Mouse two-stage carcinogenesis model (DMBA/TPA), skin hyperplasia; assay type: in vivo; details: 4 weeks, Sencar mice
Description: To test the efficacy of 2-ME in preventing or reversing neoplastic progression, the present inventors have conducted investigations using the well-established mouse two-stage carcinogenesis model. This model was developed to study the complex multistep process of epidermal carcinogenesis since initiation and promotion are involved in the development of cancer in humans. […] Although treatment of mouse skin with a single large dose of DMBA can induce papillomas in about 10-20 weeks and carcinomas in about 20-60 weeks, repetitive doses are necessary to induce tumors at lower levels. No tumors are formed at a sub-threshold dose of DMBA. However, if TPA is applied to the mice initiated with a sub threshold dose of DMBA, multiple papillomas appear after a short latency period, followed by squamous cell carcinomas after a longer period. Tumors cannot be induced with repetitive treatment of TPA in the absence of initiation. Such phenotypic changes produced in the epidermis by TPA treatment are critical for neoplastic progression. One such characteristic feature of neoplastic progression is hyperplasia.
Female Sencar mice were divided into 7 groups each with 5 animals. […]

[7] = test system: LNCaP cells; test: Cell growth, CELLTITER96 AQUEOUS ONE tetrazolium assay; assay type: cell-based; details: for inhibition of growth: 72 hours
Experimental: as §1, §2, §3
Cells were treated with either eugenol (0.25, 0.5, 0.75 or 1 mM) or 2-ME (0.5, 1, 2 or 3 mM) or both (0.25, 0.5, 0.75 or 1 mM of eugenol along with 0.5 mM of 2-ME). Cell growth was measured following 72 hours of treatment as described above.

[8] = test system: p53 in LNCaP cells; test: p53 EMSA and Western blot of whole cell extracts; assay type: cell-based
Experimental: (§4) FIG. 4 depicts an electrophoretic mobility shift assay (EMSA) of whole cell extracts (prepared from LNCaP and DU145 cells that were untreated (C) or treated (T) with 3 μM 2-ME for 48 h) using p53 consensus oligonucleotide as radiolabled probe. The indicated amounts (μg) of the extract was incubated with approximately 0.2 ng of labeled probe and the DNA-protein complexes were resolved by 4% non-denaturing gel electrophoresis. Unbound (F) and bound complexes (B) are indicated. Lane 1 is free probe; lane 2, 4, 6 and 8 are with 2.5 μg protein; lanes 3, 5, 7 and 9 are with 5 μg protein. Lanes 2, 3, 6 and 7 are untreated; lanes 4, 5, 8 and 9 are treated.
FIG. 5 depicts a Western blot analysis of whole cell extracts from LNCaP and DU145 cells following treatment with 2-ME for 48 hours using a p53 antibody (FL-393, Santa Cruz). 25 μg of extract was fractionated on 10% denaturing gel and transferred to nitrocellulose membrane. After blocking the membrane, it was incubated for 2 hours with the p53 antibody. This was followed by incubation with horseradish peroxidase-conjugated anti-rabbit IgG antibody (Sigma) in the blocking solution. Bound antibody was detected by Supersignal West Pico Chemiluminescent Substrate, following the manufacturer's directions (Pierce, Rockford, Ill.). […]

[9] = test system: p53 in DU145 cells; test: p53 EMSA of whole cell extracts; assay type: cell-based; details: DU145 extract, 3 μM, 48 h
Experimental: as §4
As shown in FIG. 4 (Electrophoretic mobility shift assay (EMSA) of extracts prepared from LNCaP and DU145 cells following treatment with 2-ME using p53 oligonucleotide probe) and FIG. 5 (Western blot analysis of extracts following 2-ME treatment with p53 antibody), the proteins from LNCaP and DU145 cells bound to the p53 consensus sequence (FIG. 4, lanes 2 and 3). […] One would expect to see induced expression of p53 following 2-ME treatment, if it is involved in mediating apoptosis.

Compound	inhibition of cancerous cell growth [1]	pro-apoptotic effects [1]	population of cells in S phase [2]	G2/M population following treatment ([2]; untreated 23%) [%]	G1 population following treatment ([2]; untreated 71%) [%]	size of the tumors [3]	number of tumors after treatment ([3]; one animal, reduced from 10)	number of tumors, other animal ([3]; other animal)	inhibition of cell proliferation ([4]; DU145, 2-ME 0.5 to 5 μM, monitored every 24 hours, less sensitive than LNCaP)	endothelial cell proliferation [5]	reduction of hyperplasia ([6]; topical 2 mg 5 min before DMBA application) [%]	inhibition of hyperplasia ([6]; topical 2 mg during tumor initiation-promotion stage)	inhibition of growth ([7]; 0.5 mM of 2-ME)	inhibition of cell proliferation ([7]; 2-ME 0.5 to 5 μM, monitored every 24 hours)	DNA-binding activity to p53 consensus sequence (EMSA) ([8]; 3 μM, 48 h)	p53 expression (Western blot) ([8]; 48 hours)	loss of DNA-binding activity to p53 consensus sequence (EMSA) [9]	IC50 ([4]; Homo sapiens, DU-145, DU145 cells, read-out: concentration necessary for 50% inhibition of growth) [µM]	inhibition of growth ([7]; 0.25 mM of eugenol)	IC50 ([7]; Homo sapiens, read-out: concentration necessary for 50% inhibition of growth) [µM]
COc1cc2c(cc1O)CC[C@@H]1[C@@H]2CC[C@]2(C)[C@@H](O)CC[C@@H]12 [2-ME, 2-methoxyoestradiol]	significantly inhibits cancerous cell growth; also recorded: inhibits the growth	has pro-apoptotic effects	no significant change	46	46	reduction in the size of the tumors	8	no change	dose-dependent inhibition of cell proliferation	inhibit endothelial cell proliferation	26	about 14%	about 20%	dose-dependent inhibition of cell proliferation	lost their binding activity	decrease in its expression	not as dramatic as that of LNCaP extracts			
C[C@]12CC[C@@H]3c4ccc(O)cc4CC[C@H]3[C@@H]1C[C@H](O)[C@@H]2O [16-ES, 16-epiestriol]	does not																			
C=CCc1ccc(O)c(OC)c1 [eugenol]																		> 2000	about 30%	~750
